Reference: paper PMC10734772 (Turkish Journal of Chemistry, 2021)

What was measured:
Format in all cases: cell-based
Nalm-6 = assay: MTT assay, Nalm-6 cells; conditions: Homo sapiens, 24 h, MTT, read-out: Viability rate
Jurkat = assay: MTT assay, Jurkat cells; conditions: Homo sapiens, 24 h, read-out: Viability rate
Molt-4 = assay: MTT assay, Molt-4 cells; conditions: Homo sapiens, MOLT-4, 24 h, read-out: Viability rate
[1] = system: K562, Nalm-6, Molt-4, Reh, Jurkat, Hek293T cell lines; assay: MTT assay, overall judgement over all cell lines; conditions: overall judgement in words; for 6 and 10: on all cell lines, except Reh
Procedure: To evaluate in-vitro anti-cancer activity of the newly synthesized compounds, they were tested by using the MTT assay in the BCR-ABL positive leukemic cell line (K562), BCR-ABL negative leukemic cell lines (Nalm-6, Molt-4, Reh and Jurkat), and non-leukemic human embryonic kidney tissue (Hek293T) cell line. […] The viability rate of each concentration was calculated by the formula stated in material and methods, the viability rate results for each cell were presented in Table S2 and Figure S44.

Reh = assay: MTT assay, Reh cells; conditions: Homo sapiens, 24 h, read-out: Viability rate
[2] = MTT assay, Hek293T non-leukemic control cells; conditions: human, read-out: Viability rate
K562 = assay: MTT assay, K562 cells; conditions: Homo sapiens, 24 h, MTT, read-out: Viability rate

For `Cc1ccnc(Nc2cc(NC(=O)c3ccc(CN4CCOCC4)cc3)ccc2C)n1` [Compound 8, N-(4-Methyl-3-((4-methylpyrimidin-2-yl)amino)phenyl)-4-(morhpolinomethyl)benzamide], the viability at 0.3 µM (Nalm-6; Nalm-6, 0.3 μM) was 102.8 ± 0.04%, the viability at 0.5 µM (Nalm-6; Nalm-6, 0.5 μM) was 101.8 ± 0.04% and the viability at 1 µM (Nalm-6; Nalm-6, 1 μM) was 102.7 ± 0.02%. The viability at 3 µM (Nalm-6; Nalm-6, 3 μM) was 99.6 ± 0.04%, the viability at 5 µM (Nalm-6; Nalm-6, 5 μM) was 102.5 ± 0.02% and the viability at 10 µM (Nalm-6; Nalm-6, 10 μM) was 100.6 ± 0.03%. It also gave a viability at 15 µM (Nalm-6; Nalm-6, 15 μM) of 100 ± 0.03%, a viability at 20 µM (Nalm-6; Nalm-6, 20 μM) of 94.2 ± 0.07% and a viability at 30 µM (Nalm-6; Nalm-6, 30 μM) of 95.9 ± 0.07%. For the same compound, the viability at 50 µM (Nalm-6; Nalm-6, 50 μM) was 91.9 ± 0.06%, the viability at 70 µM (Nalm-6; Nalm-6, 70 μM) was 87.7 ± 0.02% and the viability at 100 µM (Nalm-6; Nalm-6, 100 μM) was 87.4 ± 0.02%. It also gave a viability at 150 µM (Nalm-6; Nalm-6, 150 μM) of 81.3 ± 0.02%, a viability at 200 µM (Nalm-6; Nalm-6, 200 μM) of 70.8 ± 0.01% and a viability at 0.3 µM (Jurkat; 0.3 μM) of 81.7 ± 0.08%. For the same compound, the viability at 0.5 µM (Jurkat; 0.5 μM) was 78.7 ± 0.03%, the viability at 1 µM (Jurkat; 1 μM) was 75.8 ± 0.04% and the viability at 3 µM (Jurkat; 3 μM) was 76.8 ± 0.04%. For the same compound, the viability at 5 µM (Jurkat; 5 μM) was 78.8 ± 0.02%, the viability at 10 µM (Jurkat; 10 μM) was 78.5 ± 0.05% and the viability at 15 µM (Jurkat; 15 μM) was 77.6 ± 0.05%. It also gave a viability at 20 µM (Jurkat; 20 μM) of 77.6 ± 0.04%, a viability at 30 µM (Jurkat; 30 μM) of 66.1 ± 0.07% and a viability at 50 µM (Jurkat; 50 μM) of 65.4 ± 0.03%. The viability at 70 µM (Jurkat; 70 μM) was 65.3 ± 0.04%, the viability at 100 µM (Jurkat; 100 μM) was 63 ± 0.02% and the viability at 150 µM (Jurkat; 150 μM) was 62.4 ± 0.08%. The viability at 200 µM (Jurkat; 200 μM) was 62.3 ± 0.05%, the viability at 0.3 µM (Molt-4; Molt-4, 0.3 μM) was 98.5 ± 0.09% and the viability at 0.5 µM (Molt-4; Molt-4, 0.5 μM) was 98.5 ± 0.11%. It also gave a viability at 1 µM (Molt-4; Molt-4, 1 μM) of 95.4 ± 0.11%, a viability at 3 µM (Molt-4; Molt-4, 3 μM) of 89.2 ± 0.07% and a viability at 5 µM (Molt-4; Molt-4, 5 μM) of 90.7 ± 0.07%. It also gave a viability at 10 µM (Molt-4; Molt-4, 10 μM) of 90.4 ± 0.07%, a viability at 15 µM (Molt-4; Molt-4, 15 μM) of 90.8 ± 0.05% and a viability at 20 µM (Molt-4; Molt-4, 20 μM) of 88.3 ± 0.04%. For the same compound, the viability at 30 µM (Molt-4; Molt-4, 30 μM) was 85.8 ± 0.04%, the viability at 50 µM (Molt-4; Molt-4, 50 μM) was 83.6 ± 0.02% and the viability at 70 µM (Molt-4; Molt-4, 70 μM) was 82.6 ± 0.09%. The viability at 100 µM (Molt-4; Molt-4, 100 μM) was 81.5 ± 0.09%, the viability at 150 µM (Molt-4; Molt-4, 150 μM) was 78.9 ± 0.05% and the viability at 200 µM (Molt-4; Molt-4, 200 μM) was 78.8 ± 0.07%. The “anticancer activity according to MTT assay results” value [1] was “relatively lower activity”, the viability at 0.3 µM (Reh; 0.3 μM) was 100.8 ± 0.03% and the viability at 0.5 µM (Reh; 0.5 μM) was 102.4 ± 0.02%. The viability at 1 µM (Reh; 1 μM) was 102 ± 0.01%, the viability at 3 µM (Reh; 3 μM) was 104.8 ± 0.02% and the viability at 5 µM (Reh; 5 μM) was 103.5 ± 0.01%. The viability at 10 µM (Reh; 10 μM) was 103.1 ± 0.01%, the viability at 15 µM (Reh; 15 μM) was 100.3 ± 0.01% and the viability at 20 µM (Reh; 20 μM) was 100.6 ± 0.02%. It also gave a viability at 30 µM (Reh; 30 μM) of 102.4 ± 0.04%, a viability at 50 µM (Reh; 50 μM) of 99.4 ± 0.02% and a viability at 70 µM (Reh; 70 μM) of 94.2 ± 0.03%. The viability at 100 µM (Reh; 100 μM) was 91.1 ± 0.01%, the viability at 150 µM (Reh; 150 μM) was 91.1 ± 0.02% and the viability at 200 µM (Reh; 200 μM) was 91.2 ± 0.04%. For the same compound, the viability at 24 h, 0.3 µM ([2]; Hek293T cells (non-leukemic control cell line), 0.3 μM) was 95.7 ± 0.03%, the viability at 24 h, 0.5 µM ([2]; Hek293T cells (non-leukemic control cell line), 0.5 μM) was 94.8 ± 0.07% and the viability at 24 h, 3 µM ([2]; Hek293T cells (non-leukemic control cell line), 3 μM) was 92.9 ± 0.04%. For the same compound, the viability at 24 h, 5 µM ([2]; Hek293T cells (non-leukemic control cell line), 5 μM) was 91.2 ± 0.09%, the viability at 24 h, 10 µM ([2]; Hek293T cells (non-leukemic control cell line), 10 μM) was 90.8 ± 0.05% and the viability at 24 h, 15 µM ([2]; Hek293T cells (non-leukemic control cell line), 15 μM) was 90.1 ± 0.07%. It also gave a viability at 24 h, 20 µM ([2]; Hek293T cells (non-leukemic control cell line), 20 μM) of 90 ± 0.04%, a viability at 24 h, 30 µM ([2]; Hek293T cells (non-leukemic control cell line), 30 μM) of 84.9 ± 0.04% and a viability at 24 h, 50 µM ([2]; Hek293T cells (non-leukemic control cell line), 50 μM) of 81.3 ± 0.02%. For the same compound, the viability at 24 h, 70 µM ([2]; Hek293T cells (non-leukemic control cell line), 70 μM) was 66.9 ± 0.02%, the viability at 24 h, 100 µM ([2]; Hek293T cells (non-leukemic control cell line), 100 μM) was 66.4 ± 0.03% and the viability at 24 h, 150 µM ([2]; Hek293T cells (non-leukemic control cell line), 150 μM) was 59.4 ± 0.01%. The viability at 24 h, 200 µM ([2]; Hek293T cells (non-leukemic control cell line), 200 μM) was 58.2 ± 0.01%, the viability at 24 h, 1 µM ([2]; Hek293T cells, 1 μM) was 94.3 ± 0.06% and the viability at 0.3 µM (K562; K562, 0.3 μM) was 86.2 ± 0.09%. The viability at 0.5 µM (K562; K562, 0.5 μM) was 85.3 ± 0.03%, the viability at 1 µM (K562; K562, 1 μM) was 84.7 ± 0.05% and the viability at 3 µM (K562; K562, 3 μM) was 84.7 ± 0.06%. For the same compound, the viability at 5 µM (K562; K562, 5 μM) was 76.8 ± 0.11%, the viability at 10 µM (K562; K562, 10 μM) was 76.7 ± 0.05% and the viability at 15 µM (K562; K562, 15 μM) was 76.7 ± 0.08%. The viability at 20 µM (K562; K562, 20 μM) was 76.6 ± 0.04%, the viability at 30 µM (K562; K562, 30 μM) was 75.6 ± 0.09% and the viability at 50 µM (K562; K562, 50 μM) was 72.5 ± 0.07%. The viability at 70 µM (K562; K562, 70 μM) was 72.6 ± 0.08%, the viability at 100 µM (K562; K562, 100 μM) was 66.4 ± 0.02% and the viability at 150 µM (K562; K562, 150 μM) was 65.3 ± 0.06%. For the same compound, the viability at 200 µM (K562; K562, 200 μM) was 65.2 ± 0.06%.
